We go through 1 compound from US9006271B2, “5-[5-[2-(3,5-bis(trifluoromethyl)phenyl)-2-methylpropanomethylpropanoylmethylamino]-4-(4-fluoro-2-methylphenyl)]-2-pyridinyl-2-alkyl-prolinamide as NK1 receptor antagonists” (Nerre Therapeutics Limited, priority 2008, dated 2015).

Where a name gives a salt, the structure may show the parent alone.

The target of one data set is T1, NK1 receptor (Meriones unguiculatus, UniProt Q5DUB1).
T1 construct: from tissue; host or cells: living gerbil, central nervous system (in vivo)
In words: gerbil foot tapping model (GR73632-induced, icv). Format: in vivo. The source says: The ability of the compounds of the invention to penetrate the central nervous system and to bind at the NK1 receptor may be determined using the gerbil foot tapping model as described by Rupniak & Williams, Eur. Jour. of Pharmacol., 1994.
Intracerebroventricular (icv) administration of the NK1 receptor agonist GR73632 (R. M. Hagan et al., Neuropeptides 1991, 19 (2), 127-135) a characteristic hind leg foot tapping (GFT) response in gerbils which can be inhibited by potent NK1 receptor antagonists. The gerbil foot tapping paradigm was carried out as follows; gerbils were dosed with compound of the invention, and following an appropriate pre-treatment time were anaesthetised using isofluorane/oxygen mixture. The skull was then exposed and 5 ul of GR73632 (3 pmol conc.) was injected by insertion of a cuffed 25 G needle to a depth of 4 mm below bregma, directly into the lateral ventricle (intracerebroventricular dosing). Immediately following the injection, gerbils were placed individually into a clear observation box to recover. Upon the gerbil regaining its righting reflex, the duration of repetitive hind foot tapping was recorded over a 5 minute period. […]

The subject of a further data set is common marmosets. In words: marmoset human threat test. The data set is classed as in vivo, common marmoset. The note with it: for No. jumps (index of locomotor activity): 1 h before test, mean±SEM n=4, vehicle 16.3 ± 1.7. The protocol: For example the marmoset human threat test (Costall et al., 1988 The study utilised in house laboratory-bred male and female common marmosets over 2 years of age, weighing 300-500 g. The animals were caged in couples, in a housing room maintained at 25±1° C., 60% humidity and a 12 hour light/dark cycle (lights on at 0600, with 30 min simulated dawn and twilight). Testing was carried out with the animals situated in the home cage. One hour before the test animals were treated orally with vehicle (0.5% HPMC) or test compound (1 ml/kg). After a wash-out period of at least three days, treatments were reassigned and the study was complete when all animals had received all treatments. Number of specific behavioural postures in response to the human threat and the number of jumps were analysed in this study. The postures recorded in the test were those described by Costall et al (1988). and the number of jumps from the back of the cage to the cage front provided an index of locomotor activity to assess potential for sedation or locomotor stimulation. […] Results are expressed as mean±SEM (n=7). of number of postures and as a mean±SEM (n=4) of number of jumps. Data were subjected to one-way analysis of variance (ANOVA) followed by Dunnett's test, comparing each compound dose with vehicle treatment, using Statistica software (version 8.0) Statistically significant differences with respect to vehicle are indicated as *P<0.01.

T1 sequence (Q5DUB1 whole entry): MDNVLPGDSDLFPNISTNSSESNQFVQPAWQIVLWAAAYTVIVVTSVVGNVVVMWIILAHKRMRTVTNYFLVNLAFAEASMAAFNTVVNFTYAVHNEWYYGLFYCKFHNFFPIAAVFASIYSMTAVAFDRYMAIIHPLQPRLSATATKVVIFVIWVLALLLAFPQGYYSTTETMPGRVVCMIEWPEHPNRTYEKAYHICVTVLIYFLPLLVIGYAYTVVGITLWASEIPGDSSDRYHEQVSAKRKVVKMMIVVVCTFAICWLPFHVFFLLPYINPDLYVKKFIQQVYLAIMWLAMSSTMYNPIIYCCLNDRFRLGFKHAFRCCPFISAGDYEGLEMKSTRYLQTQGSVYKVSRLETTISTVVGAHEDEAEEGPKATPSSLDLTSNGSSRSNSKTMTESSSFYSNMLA

Take `Cc1cc(F)ccc1-c1cc([C@H]2CC[C@](C)(C(N)=O)N2)ncc1N(C)C(=O)C(C)(C)c1cc(C(F)(F)F)cc(C(F)(F)F)c1` [Example 11, (5R)-5-[5-[{2-[3,5-bis(trifluoromethyl)phenyl]-2-methylpropanoyl}(methyl)amino]-4-(4-fluoro-2-methylphenyl)-2-pyridinyl]-2-methyl-D-prolinamide bis-hydrochloride]: the “GR73632-induced foot tapping behaviour” value at NK1 receptor (0.3, 1.0 and 3.0 mg/kg p.o., P<0.01) is on record as “significantly attenuated”. The “ID50 as plasma concentration” value at NK1 receptor (plasma, p.o.) is “approximately 5 ng/ml”. The “No. jumps (index of locomotor activity)” value is recorded as 20.1 ± 2.1 in the data set with common marmosets (0.1 mg/kg oral), 13.4 ± 2.5 in the data set on common marmosets (0.3 mg/kg oral) and 13.0 ± 2.1 in the data set with common marmosets (1 mg/kg oral). The “effect on number of jumps” value with common marmosets (0.1, 0.3 or 1 mg/kg oral) was “not accompanied by a reduction in the number of jumps”. The “effect on number of postures” value in the data set with common marmosets (0.1, 0.3 or 1 mg/kg oral, significant at 0.3 and 1 mg/kg (P<0.01)) is “dose dependent reduction in the number of postures”.
